{"source": "patent US20100015620A1", "about": "“CANCER-LINKED GENES AS BIOMARKERS TO MONITOR RESPONSE TO IMPDH INHIBITORS” (priority 2006, published 2010)", "key": {"[1]": {"test_system": "human peripheral lymphocytes stimulated with either B-cell or T-cell mitogens", "conditions": "cited from earlier work"}, "[2]": {"test_system": "HT-29, K-562 and KG-1 cells", "assay": "GTP pool depletion and repletion, and cell cycle block, in cell lines", "assay_type": "cell-based, human", "protocol": "The present identification of relevant biomarkers was cognizant of the need to capture genes that move with respect to relevant clinical experiments. For example, IMPDH inhibition results in the cell cycle halting at the G1 border. […] Concentration depletion of GTP was measured in HT-29, K-562 and KG-1 cells. DMSO was used as control. […] For example, PDE7A and RRM2 were deregulated only on GTP repletion (which occurred within 90 minutes after drug removal). Thus, the present experiments have correlated gene involvement with the real biological endpoint for IMPDH inhibition."}, "both IMPDH isozymes": {"biological_target": "both IMPDH isozymes", "conditions": "cited from earlier work"}}, "note": "pIC50, pKi: −log10 of the molar value.", "data": [{"smiles": "CC[C@H](CC#N)OC(=O)N[C@@H](C)c1cccc(NC(=O)Nc2ccc(-c3cnco3)c(OC)c2)c1", "note": "[AVN-944]", "values": [{"measurement": "pIC50", "setting": "[1]", "result": "7.00 to 7.70"}, {"measurement": "Effect on GTP pools", "setting": "[2]; HT-29, K-562 and KG-1 cells, DMSO control", "result": "depleted GTP pools"}, {"measurement": "Time to GTP repletion after drug removal", "setting": "[2]; after drug removal", "result": "≤ 90", "unit": "min"}, {"measurement": "Effect on cell cycle", "setting": "[2]; at concentrations of AVN-944 that depleted GTP pools", "result": "S phase cell cycle block"}, {"measurement": "pKi", "setting": "both IMPDH isozymes", "result": "8.00 to 8.15"}]}]}
